# Experimental data: patent publication US7585517B2, “Transscleral delivery” (Macusight, Inc., priority 2003, dated 2009)
# Where two headings read alike, the source gives them in different places.
# What was measured:
# [1] = tested on: laser induced CNV; assay: Reversal of laser induced CNV by periocular rapamycin (Example 2); type: in vivo; conditions: mice; daily periocular 5 μg in 5 μl corn oil started one week after laser, for one week; SD 0.0053
# Protocol: Fifteen mice had Bruch's membrane ruptured with laser photocoagulation at 3 locations in each eye. After one week, 5 mice were perfused with fluorescein-labeled dextran and the baseline area of CNV was measured in each eye. At that point, the remaining mice were started on daily periocular injections of 5 μl of corn oil containing 5 μg of rapamycin in one eye and corn oil alone in the fellow eye. After one more week, the mice were perfused with fluorescein-labeled dextran and CNV areas were measured in each eye on choroidal flat mounts. The corn oil solution used is approximately a saturated solution. It is expected that lower doses will be used to deliver therapeutically effective amounts of rapamycin.
# Baseline lesion CNV area was 0.0105 mm^2 with a standard deviation of 0.0037.
# [2] = tested on: laser induced CNV; assay: Inhibition of laser induced CNV by periocular rapamycin (Example 1); type: in vivo; conditions: mice; daily periocular injections of 5 micrograms in corn oil, begun two days before laser rupture; two weeks after laser; SD 0.00197
# Protocol: (§1) CNV may be induced by rupturing Bruch's membrane with laser. Fifteen mice were given daily periocular injections of 5 micrograms of rapamycin in corn oil vehicle in one eye. After two days of treatment, Bruch's membrane was ruptured by laser at three sites in each eye. The fellow eye served as control and was treated with periocular injections of corn oil only. Two weeks after laser rupture, 10 mice were perfused with fluorescein-labeled dextran and CNV areas were measured in each eye on choroidal flat mounts. The remaining mice had retinas and RPE/choroid dissected and stored at −70° C. for tissue therapeutic agents level measurement.
# [3] = Two chamber Ussing type permeability apparatus, transscleral rapamycin delivery; type: in vitro ADME, human; conditions: human
# Protocol: (§2) Prior to testing of sclera, loss of therapeutic agent to the glass walls of the experimental apparatus was evaluated. For the evaluation of loss of drug to the experimental apparatus, the uveal and orbital chambers were exposed to a 2 μg/mL rapamycin solution in balanced salt solution.
# (§3) A 7 mm disk of fresh donor human sclera was used to separate the two chambers of the Ussing permeability apparatus. The two sides of the sclera were denoted “orbital” to represent the outer surface and “uveal” to represent the internal surface. […] Thus, in order to grossly replicate a scleral depot delivery system, the hydrophobic therapeutic agent solvents were diluted to 5% concentration in balanced salt solution (BSS) with dissolved rapamycin to form a roughly 100 μg per ml orbital chamber solution. In this example, the chamber on the orbital surface side contained a reservoir of 200 μl of rapamycin dissolved in 5% DMSO in BSS at an expected concentration of 100 μg per milliliter. The 500 μl uveal chamber was continually perfused at 0.0075 milliliter per minute and samples were collected by a fractionater in Eppendorf tubes every 4 hours. The experiment was run for 36 hours.
# (§4) At the peak concentrations in the uveal chamber (250 ng/ml), rapamycin will fully dissolve in vitreous. Because the amount of therapeutic agent in the orbital chamber was declining, the steady state was estimated by the highest flux. […] A permeability coefficient (K) was calculated as:
# (§5) [formula] ΔC represents the increase in concentration the compound in the uveal chamber (0.250 micrograms/ml) that occurs over the interval t, in seconds ([…]). V is the chamber volume (1.8 milliliter). A represents the exposed area of the tissue (0.385 cm^2). C0 is the initial concentration of the compound in the orbital chamber (92 microgram/ml). Calculated in this manner, the permeability coefficient, K, has the dimensions of cm/s. KTRANS thus expresses the rate at which a given solute traverses the tissue. (Advanced Therapeutic agent Delivery Reviews 52 (2001) 37-48 by Dale Geroski and Hank Edelhauser, which is incorporated herein by reference in its entirety). For this experiment KTRANS was roughly 8.82×10^−6 cm/sec, which was on the order of predictions based on MW. Comparatively, when evaluating the KTRANS of dexamethasone, which is smaller than rapamycin, and adjusting for a lower solubility, the figures for rapamycin are also in the appropriate predicted ranges. It is expected that as the external concentration of rapamycin is raised, the flux will increase. Under the ex-vivo conditions of this example, rapamycin can be delivered in the single digit micrograms per day to the vitreous. Such rates are consistent with therapeutic local tissue levels and support that rapamycin is a viable therapeutic agent for transscleral delivery to the posterior segment for vitreoretinal disease. Transscleral Rapamycin Delivery—Methanol Solution
# (§6) The above procedure was followed with the exception that rapamycin was dissolved in 5% methanol in BSS. The time profile of the concentration of rapamycin in the uveal chamber is depicted in FIG. 3 (circles). The peak concentration in the uveal chamber was 271 ng/ml at t=12 to 16 hours. The total amount of rapamycin accumulated on the uveal side of the sclera is depicted as function of time in FIG. 4 (squares). The total rapamycin recovered from the uveal chamber was 3.44 micrograms in 36 hours.
# [4] = tested on: human sclera; assay: as above; type: in vitro ADME; conditions: for rapamycin held by the sclera at the conclusion of the experiment: 36 hours; for total rapamycin recovered from the uveal chamber: in 36 hours
# Protocol: as §2, §3, §4, §5, §6
# [5] = Retinal tissue and blood levels of rapamycin after periocular injection (HPLC/MS); type: in vivo; conditions: mice
# Protocol: as §1
# [6] = Solubility of rapamycin; type: physicochemical
compound,measurement,setting,value
CO[C@H]1C[C@@H]2CC[C@@H](C)[C@@](O)(O2)C(=O)C(=O)N2CCCC[C@H]2C(=O)O[C@H]([C@H](C)C[C@@H]2CC[C@@H](O)[C@H](OC)C2)CC(=O)[C@H](C)/C=C(\C)[C@@H](O)[C@@H](OC)C(=O)[C@H](C)C[C@H](C)/C=C/C=C/C=C/1C [rapamycin],"CNV area, treated eyes",[1],0.00458 mm^2
same,"mean CNV area, rapamycin treated eyes",[2],0.00381 mm^2
same,"Papp at 36 h, 92 μg/mL","[3]; 5% DMSO in BSS, read-out: permeability coefficient KTRANS",~8.82 ×10⁻⁶ cm/s
same,"Papp at 36 h, 100 μg/mL","[3]; 5% methanol in BSS, read-out: permeability coefficient KTRANS",9.56 ×10⁻⁶ cm/s
same,"Papp at 36 h, 100 μg/mL","[3]; ex-vivo human scleral tissue, order of magnitude, summary of Example 3, read-out: permeability of human sclera to rapamycin",~10 ×10⁻⁶ cm/s
same,time of peak concentration in the uveal chamber,[4]; 5% DMSO in BSS,8 to 12 h
same,peak concentration in the uveal chamber,"[4]; 5% DMSO in BSS, about 100 μg per ml orbital chamber",250 ng/mL
same,rapamycin held by the sclera at the conclusion of the experiment,[4]; 5% DMSO in BSS,0.57 micrograms
same,total rapamycin recovered from the uveal chamber,[4]; 5% DMSO in BSS,2.67 micrograms
same,highest flux,"[4]; 5% DMSO in BSS, taken as estimate of steady state",9.35 micrograms per square centimeter per day
same,peak concentration in the uveal chamber,[4]; 5% methanol in BSS,271 ng/mL
same,time of peak concentration in the uveal chamber,[4]; 5% methanol in BSS,12 to 16 h
same,rapamycin held by the sclera at the conclusion of the experiment,[4]; 5% methanol in BSS,0.41 micrograms
same,total rapamycin recovered from the uveal chamber,[4]; 5% methanol in BSS,3.44 micrograms
same,rapamycin blood levels,[5]; periocular 5 μg per day,5.57 nanograms per milligram blood
same,"retinal tissue levels of rapamycin, treated eyes","[5]; periocular 5 μg per day, HPLC/MS",25 picograms per milligram tissue
same,"retinal tissue levels of rapamycin, fellow control eyes",[5]; untreated fellow eye of animals given periocular 5 μg per day in the other eye,7 picograms per milligram tissue
same,solubility in aqueous solutions,[6],poorly soluble
